Patent US20250115597A1, “TYK2 INHIBITORS AND COMPOSITIONS AND METHODS THEREOF” (LYNK PHARMACEUTICALS CO. LTD., priority 2021, published 2025)

Experiments:
[1] = target: T1, Ba/F3-FL-TYK2-P760L cells (Homo sapiens, UniProt P29597, P760L, cells depend on it); experiment: Anti-proliferative assay, Ba/F3-FL-TYK2-P760L cells (Cell-Titer Glo); type: cell-based; settings: 72 h, read-out: BaF3-FL-T2P760L IC50
T1 construct: BaF3-FL-T2P760L (nM)
Outline: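 Ba/F3 cells made IL-3-independent by TEL-fused or full-length mutant JAK-family kinases, seeded at 2000/well and dosed after 24 h with 9 three-fold dilutions topping at 20 μM. Viability after 72 h at 37 °C, 5% CO2 by Cell-Titer Glo ATP luminescence.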

TYK2-JH2 domain = target: T2, TYK2-JH2 domain (Homo sapiens, UniProt P29597); experiment: Binding activity test for JH2 domain of TYK2 (Tb-antibody/tracer FRET)
T2 construct: IC50 on JH2 domain activity (nM)
T2 sequence (P29597 589-875 limits assumed): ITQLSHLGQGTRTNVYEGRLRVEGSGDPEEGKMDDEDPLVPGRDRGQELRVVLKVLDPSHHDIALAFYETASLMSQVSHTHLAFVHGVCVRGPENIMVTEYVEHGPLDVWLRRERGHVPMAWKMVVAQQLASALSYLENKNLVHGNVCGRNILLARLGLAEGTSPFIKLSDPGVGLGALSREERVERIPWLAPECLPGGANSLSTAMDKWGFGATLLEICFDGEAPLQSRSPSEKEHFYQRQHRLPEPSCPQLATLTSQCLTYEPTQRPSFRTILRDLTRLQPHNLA
Description: Binding Activity Test for […] Domain of JAK1 and TYK2 The compounds are prepared in DMSO for 200× top dose, then serial dilute it with 27-fold for 3 more points. Add 8 μL/well in echo source plate, echo will add 75 nL/well with 3-fold serial dilution for 11 points in assay plate. 75 nL DMSO for high control and low control. […] For low control, add 5 μL/well assay buffer. And then spin down at 1000 rpm and centrifuge for 30 seconds. After enzyme system prepared, add 5 μL of Tb-antibody solution into each wells of assay plate. Spin down at 1000 rpm and centrifuge for 30 sec. After Tb-antibody added, also add 5 μL of tracer into the assay plate. Spin down at 1000 rpm and centrifuge for 30 sec. Incubate for 60 mins at 25° C. firstly and then continue to incubate the plate at 4° C. overnight. Read by envision in FRET mode. The Luminescence value was recorded by a multi-label reader Envision (PerkinElmer).

[2] = Microsomal metabolic stability assay; type: in vitro ADME; settings: pH 7.4, human liver microsomes, 0.5 mg/mL protein, 1 μM compound; for microsomal CLint at 1 μM: read-out: Human LM Clint; for half-life at 1 μM: read-out: Human LM T½
Outline: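 Test article at 1 μM with 0.5 mg/mL microsomal protein and 2 mM NADPH, in 100 mM potassium phosphate pH 7.4 with 1.0 mM EDTA at 37 °C. Sampled at 0–45 min and quantified by LC/MS/MS. T1/2 from the slope of ln % remaining vs time.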

T1 sequence (P29597 whole entry P760L): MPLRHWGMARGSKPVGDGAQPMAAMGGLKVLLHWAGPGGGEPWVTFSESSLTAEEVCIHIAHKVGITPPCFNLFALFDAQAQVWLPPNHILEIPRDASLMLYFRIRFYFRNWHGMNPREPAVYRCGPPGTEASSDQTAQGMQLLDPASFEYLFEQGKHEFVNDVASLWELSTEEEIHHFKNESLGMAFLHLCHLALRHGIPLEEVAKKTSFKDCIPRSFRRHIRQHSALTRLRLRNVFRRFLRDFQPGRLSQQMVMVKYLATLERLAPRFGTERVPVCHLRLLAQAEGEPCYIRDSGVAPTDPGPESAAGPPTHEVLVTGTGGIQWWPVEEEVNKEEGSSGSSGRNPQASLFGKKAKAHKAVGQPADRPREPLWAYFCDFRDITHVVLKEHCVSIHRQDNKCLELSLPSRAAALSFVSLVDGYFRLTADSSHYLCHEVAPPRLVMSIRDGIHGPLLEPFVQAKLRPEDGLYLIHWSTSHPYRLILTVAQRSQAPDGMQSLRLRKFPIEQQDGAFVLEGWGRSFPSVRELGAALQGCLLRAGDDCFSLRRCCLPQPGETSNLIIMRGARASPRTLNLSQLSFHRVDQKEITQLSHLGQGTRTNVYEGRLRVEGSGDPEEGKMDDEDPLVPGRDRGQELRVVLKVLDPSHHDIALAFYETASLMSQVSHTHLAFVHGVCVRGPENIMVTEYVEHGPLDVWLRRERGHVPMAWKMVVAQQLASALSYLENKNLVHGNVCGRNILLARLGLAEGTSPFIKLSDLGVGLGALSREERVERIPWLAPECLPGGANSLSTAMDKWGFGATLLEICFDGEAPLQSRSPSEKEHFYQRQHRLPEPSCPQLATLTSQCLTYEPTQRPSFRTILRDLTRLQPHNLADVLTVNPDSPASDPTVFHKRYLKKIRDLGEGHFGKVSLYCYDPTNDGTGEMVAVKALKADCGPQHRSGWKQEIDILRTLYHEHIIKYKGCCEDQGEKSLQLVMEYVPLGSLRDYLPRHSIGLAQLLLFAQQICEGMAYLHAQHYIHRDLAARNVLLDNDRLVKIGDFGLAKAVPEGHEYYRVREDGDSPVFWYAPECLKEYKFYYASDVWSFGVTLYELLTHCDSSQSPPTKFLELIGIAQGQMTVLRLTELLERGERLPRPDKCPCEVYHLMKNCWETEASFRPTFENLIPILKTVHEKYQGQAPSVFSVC

Structure (SMILES)	GI50 [1]	IC50 (TYK2-JH2 domain)	microsomal CLint at 1 μM [2]	half-life at 1 μM [2]
[2H]C([2H])([2H])NC(=O)c1cnc(NC(=O)C2CC2)cc1Nc1ccn2cnc(CC)c2c1OC [Example 57, 6-(Cyclopropanecarboxamido)-4-((1-ethyl-8-methoxyimidazo[1,5-a]pyridin-7-yl)amino)-N-(methyl-d3)nicotinamide]	> 5000 nM	5.21 nM	–	–
[2H]C([2H])([2H])NC(=O)c1nnc(NC(=O)C2CC2)cc1Nc1ccc2cnn(CC)c2c1OC [Example 144, 6-(Cyclopropanecarboxamido)-4-((1-ethyl-7-methoxy-1H-indazol-6-yl)amino)-N-(methyl-d3)pyridazine-3-carboxamide]	344 nM	1.29 nM	–	–
CCc1nn(C)c2ccc(Nc3cc(NC(=O)C4CC4)ncc3C(=O)OC)c(OC)c12 [Example 149, Methyl 6-(cyclopropanecarboxamido)-4-((3-ethyl-4-methoxy-1-methyl-1H-indazol-5-yl)amino)nicotinate]	732 nM	62.8 nM	–	–
[2H]C([2H])([2H])NC(=O)c1cnc(NC(=O)C2CC2)cc1Nc1ccc2nc(C)n(CC)c2c1OC [Example 168, 6-(Cyclopropanecarboxamido)-4-((1-ethyl-7-methoxy-2-methyl-1H-benzo[d]imidazol-6-yl)amino)-N-(methyl-d3)nicotinamide]	728 nM	2.15 nM	–	–
[2H]C([2H])([2H])NC(=O)c1cnc(NC(=O)C2CC2)cc1Nc1cn(C)c2ncn(CC(F)F)c(=O)c12 [Example 194, 6-(Cyclopropanecarboxamido)-4-((3-(2,2-difluoroethyl)-7-methyl-4-oxo-4,7-dihydro-3H-pyrrolo[2,3-d]pyrimidin-5-yl)amino)-N-(methyl-d3)nicotinamide]	562 nM	0.756 nM	–	–
[2H]C([2H])([2H])NC(=O)c1cnc(NC(=O)C2CC2)cc1Nc1cn(C)c2cnn(C(C)C(F)(F)F)c(=O)c12 (centres unmarked) [Example 200, 6-(Cyclopropanecarboxamido)-N-(methyl-d3)-4-((1-methyl-4-oxo-5-(1,1,1-trifluoropropan-2-yl)-4,5-dihydro-1H-pyrrolo[2,3-d]pyridazin-3-yl)amino)nicotinamide]	648 nM	–	< 11.5 µL/min/mg	> 120 min
[2H]C([2H])([2H])NC(=O)c1cnc(NC(=O)C2CC2)cc1Nc1ccc2cnc(CC)n2c1OC [Example 227, 6-(Cyclopropanecarboxamido)-4-((3-ethyl-5-methoxyimidazo[1,5-a]pyridin-6-yl)amino)-N-(methyl-d3)nicotinamide]	> 5000 nM	7.53 nM	–	–
[2H]C([2H])([2H])NC(=O)c1cnc(NC(=O)C2CC2)cc1Nc1ccc2nn(C)c(CC)c2c1OC [Example 232, 6-(Cyclopropanecarboxamido)-4-((3-ethyl-4-methoxy-2-methyl-2H-indazol-5-yl)amino)-N-(methyl-d3)nicotinamide]	1700 nM	1.58 nM	–	–
[2H]C([2H])([2H])NC(=O)c1cnc(NC(=O)C2CC2)cc1Nc1cnc2cnn(CC)c2c1OC [Example 265, 6-(Cyclopropanecarboxamido)-4-((1-ethyl-7-methoxy-1H-pyrazolo[4,3-b]pyridin-6-yl)amino)-N-(methyl-d3)nicotinamide]	> 5000 nM	69.2 nM	–	–
[2H]C([2H])([2H])NC(=O)c1cnc(NC(=O)C(F)(F)F)cc1Nc1ccc2cnn(CC)c2c1OC [Example 271, 4-((1-Ethyl-7-methoxy-1H-indazol-6-yl)amino)-N-(methyl-d3)-6-(2,2,2-trifluoroacetamido)nicotinamide]	2610 nM	25.6 nM	–	–

Now those with a lower GI50 [1], led by results:

GI50 [1]	IC50 (TYK2-JH2 domain)	microsomal CLint at 1 μM [2]	half-life at 1 μM [2]	Structure (SMILES)
252 nM	1.3 nM	–	–	CCN1C(=O)Cc2ccc(Nc3cc(NC(=O)C4CC4)ncc3C(=O)NC)c(OC)c21 [Example 205, 6-(Cyclopropanecarboxamido)-4-((1-ethyl-7-methoxy-2-oxoindolin-6-yl)amino)-N-methylnicotinamide]
244 nM	0.601 nM	–	–	[2H]C([2H])([2H])NC(=O)c1cnc(NC(=O)C2CC2)cc1Nc1cn(CC)c2ncn(CC(F)(F)F)c(=O)c12 [Example 212, 6-(Cyclopropanecarboxamido)-4-((7-ethyl-4-oxo-3-(2,2,2-trifluoroethyl)-4,7-dihydro-3H-pyrrolo[2,3-d]pyrimidin-5-yl)amino)-N-(methyl-d3)nicotinamide]
242 nM	> 298 nM	–	–	CCn1ncc2ccc(Nc3cc(NC(=O)C4CC4)ncc3C(=O)OC)c(OC(F)(F)F)c21 [Example 148, Methyl 6-(cyclopropanecarboxamido)-4-((1-ethyl-7-(trifluoromethoxy)-1H-indazol-6-yl)amino)nicotinate]
231 nM	1.87 nM	–	–	[2H]C([2H])([2H])NC(=O)c1cnc(NC(=O)C2CC2)cc1Nc1ccc2c(c(CC)nn2C)c1OC [Example 150, 6-(Cyclopropanecarboxamido)-4-((3-ethyl-4-methoxy-1-methyl-1H-indazol-5-yl)amino)-N-(methyl-d3)nicotinamide]
217 nM	0.557 nM	–	–	[2H]C([2H])([2H])NC(=O)c1cnc(NC(=O)C2CC2)cc1Nc1cn(CC(F)(F)F)c2ncn(CC)c(=O)c12 [Example 214, 6-(Cyclopropanecarboxamido)-4-((3-ethyl-4-oxo-7-(2,2,2-trifluoroethyl)-4,7-dihydro-3H-pyrrolo[2,3-d]pyrimidin-5-yl)amino)-N-(methyl-d3)nicotinamide]
205 nM	1.31 nM	–	–	[2H]C([2H])([2H])NC(=O)c1cnc(NC(=O)C2CC2)cc1Nc1cn(C)c2ncn(C(C)C(F)(F)F)c(=O)c12 (centres unmarked) [Example 217, 6-(Cyclopropanecarboxamido)-N-(methyl-d3)-4-((7-methyl-4-oxo-3-(1,1,1-trifluoropropan-2-yl)-4,7-dihydro-3H-pyrrolo[2,3-d]pyrimidin-5-yl)amino)nicotinamide]
174 nM	0.71 nM	–	–	[2H]C([2H])([2H])NC(=O)c1cnc(NC(=O)C2CC2)cc1Nc1cn(C2CC2)c2ncn(CC)c(=O)c12 [Example 211]
162 nM	–	64.4 µL/min/mg	21.5 min	[2H]C([2H])([2H])NC(=O)c1cnc(NC(=O)C2CC2)cc1Nc1cn(CCOC)c2ccn(C(C)C(F)(F)F)c(=O)c12 (centres unmarked) [Example 201, 6-(Cyclopropanecarboxamido)-4-((1-(2-methoxyethyl)-4-oxo-5-(1,1,1-trifluoropropan-2-yl)-4,5-dihydro-1H-pyrrolo[3,2-c]pyridin-3-yl)amino)-N-(methyl-d3)nicotinamide]
159 nM	0.532 nM	–	–	[2H]C([2H])([2H])NC(=O)c1cnc(NC(=O)C2CC2)cc1Nc1ccn2ncc(CCC)c2c1OC [Example 215, 6-(Cyclopropanecarboxamido)-4-((4-methoxy-3-propylpyrazolo[1,5-a]pyridin-5-yl)amino)-N-(methyl-d3)nicotinamide]
128 nM	1.46 nM	–	–	[2H]C([2H])([2H])NC(=O)c1cnc(NC(=O)C2CC2)nc1Nc1ccc2cnn(CC)c2c1OC [Example 135, 2-(Cyclopropanecarboxamido)-4-((1-ethyl-7-methoxy-1H-indazol-6-yl)amino)-N-(methyl-d3)pyrimidine-5-carboxamide]
113 nM	0.622 nM	–	–	[2H]C([2H])([2H])NC(=O)c1cnc(NC(=O)C2CC2)cc1Nc1cn(C)c2ccn(C(C)C(F)(F)F)c(=O)c12 (single isomer, unassigned) [Example 190A, (R*)-6-(Cyclopropanecarboxamido)-N-(methyl-d3)-4-((1-methyl-4-oxo-5-(1,1,1-trifluoropropan-2-yl)-4,5-dihydro-1H-pyrrolo[3,2-c]pyridin-3-yl)amino)nicotinamide]
102 nM	3.35 nM	–	–	COC(=O)c1cnc(NC(=O)C2CC2)cc1Nc1cn(C)c2ccn(C)c(=O)c12 [Example 116, Methyl 6-(cyclopropanecarboxamido)-4-((1,5-dimethyl-4-oxo-4,5-dihydro-1H-pyrrolo[3,2-c]pyridin-3-yl)amino)nicotinate]
86.5 nM	0.817 nM	–	–	[2H]C([2H])([2H])NC(=O)c1cnc(NC(=O)C2CC2)cc1Nc1csc2c(Cl)cn(CC)c(=O)c12 [Example 173, 4-((7-Chloro-5-ethyl-4-oxo-4,5-dihydrothieno[3,2-c]pyridin-3-yl)amino)-6-(cyclopropanecarboxamido)-N-(methyl-d3)nicotinamide]
68.6 nM	0.343 nM	–	–	[2H]C([2H])([2H])NC(=O)c1nnc(NC(=O)C2CC2)cc1Nc1nn(CC)c2ccn(CC(F)(F)F)c(=O)c12 [Example 218, 6-(Cyclopropanecarboxamido)-4-((1-ethyl-4-oxo-5-(2,2,2-trifluoroethyl)-4,5-dihydro-1H-pyrazolo[4,3-c]pyridin-3-yl)amino)-N-(methyl-d3)pyridazine-3-carboxamide]
